The values below come from US8476025B2, “ATM-dependent phosphorylation of Sp1 is involved in the cellular response to DNA damage and enhances cellular survival after DNA damage” (Philadelphia Health and Education Corporation, priority 2007, dated 2013).

Read-outs that look alike come from different tables or passages of the source.

For experiment [1], the system named is U2OS cells. As to the kind of experiment: Clonogenic rescue experiment in Sp1-depleted U2OS cells exposed to H2O2. It is filed as cell-based, human. Particulars: H2O2 for one hour, colonies counted after 11 days. The protocol:
In the case of the rescue experiment, U2OS cells were transfected with siRNA and replated 72 hours later. The cells were then transfected with WT Sp1 or Sp1-101A and 48 hours later cells were exposed to H2O2 and re-seeded onto 60 mm dishes. Colonies were fixed and stained in crystal violet 11 days after plating and then counted.

In experiment [2] the test system is Sp1 phosphorylation. Particulars: NHDFs.
Experiment [3] concerns Sp1 phosphorylation. Particulars: fibroblasts with wild-type ATM, one hour exposure.
The subject of experiment [4] is Phosphorylation of Sp1 and H2AX. As to the kind of experiment: Immunoblot of H2O2-induced Sp1 and H2AX phosphorylation in NHDFs pretreated with wortmannin or KU55933. It is filed as cell-based, human. Particulars: 200 μM H2O2, pre-treatment with 10 μM KU55933. On the technique in general: In western blotting, separated proteins are transferred to a membrane and probed.

Experiment [5] is classed as cell-based, human. Particulars: U2OS, 10 μM ATM inhibitor, 200 μM H2O2.
Experiment [6] concerns Sp1 phosphorylation at serine 101. The format is cell-based, human. Conditions: U2OS, 10 μM ATM inhibitor.
In experiment [7] the test system is ATM kinase activity. As to the kind of experiment: Indirect immunofluorescence for γSp1^101 and phospho-ATMs1981 in UV-exposed U2OS cells. The format is cell-based, human. Conditions: 0.5 J/m^2 UV, pre-treated with 10 μM KU55933.
Method: U2OS cells were plated onto glass coverslips 24-36 hours before treatment. […] U2OS cells were washed in ice-cold PBS twice and pre-extracted in 0.2% Triton X-100/30% ddH2O/20 mM PMSF in PBS for 5 minutes at 4° C. Cells were then washed with PBS and fixed in 2% Para-formaldehyde/3% sucrose in PBS for 10 minutes at room temperature. Cells were washed twice in PBS at room temperature then permeablized in 0.5% Triton X-100 in PBS for 5 minutes at 4° C. Cells were washed 2 times in room temperature PBST (0.1% Tween 20, 0.02% Sodium azide in PBS) and incubated in primary antibody overnight at 4° C., mouse monoclonal γH2AX (ser139, Upstate Biotechnology), diluted 1:1000 in PBST solution, mouse P-ATMser1981 (Cell Signalling, diluted 1:1000) or rabbit polyclonal γSp1^101 (diluted 1:500, 21st Century Biotechnology). Cells were washed in PBST three times followed by the addition of secondary antibody, AlexaFlour488 donkey anti-rabbit, diluted 1:1000 in PBST and AlexaFlour594 donkey anti-mouse antibody, diluted 1:1000 in PBST for 1 hours in the dark. Cells were washed 4 times with PBST. Slides were mounted using Vectashield mounting medium containing DAPI (Vector Labs).
Experiment [8] deals with ATM (Homo sapiens, UniProt Q13315). Particulars: Hickson et al. 2004; cited from earlier work.
ATM, sequence (Q13315 whole entry): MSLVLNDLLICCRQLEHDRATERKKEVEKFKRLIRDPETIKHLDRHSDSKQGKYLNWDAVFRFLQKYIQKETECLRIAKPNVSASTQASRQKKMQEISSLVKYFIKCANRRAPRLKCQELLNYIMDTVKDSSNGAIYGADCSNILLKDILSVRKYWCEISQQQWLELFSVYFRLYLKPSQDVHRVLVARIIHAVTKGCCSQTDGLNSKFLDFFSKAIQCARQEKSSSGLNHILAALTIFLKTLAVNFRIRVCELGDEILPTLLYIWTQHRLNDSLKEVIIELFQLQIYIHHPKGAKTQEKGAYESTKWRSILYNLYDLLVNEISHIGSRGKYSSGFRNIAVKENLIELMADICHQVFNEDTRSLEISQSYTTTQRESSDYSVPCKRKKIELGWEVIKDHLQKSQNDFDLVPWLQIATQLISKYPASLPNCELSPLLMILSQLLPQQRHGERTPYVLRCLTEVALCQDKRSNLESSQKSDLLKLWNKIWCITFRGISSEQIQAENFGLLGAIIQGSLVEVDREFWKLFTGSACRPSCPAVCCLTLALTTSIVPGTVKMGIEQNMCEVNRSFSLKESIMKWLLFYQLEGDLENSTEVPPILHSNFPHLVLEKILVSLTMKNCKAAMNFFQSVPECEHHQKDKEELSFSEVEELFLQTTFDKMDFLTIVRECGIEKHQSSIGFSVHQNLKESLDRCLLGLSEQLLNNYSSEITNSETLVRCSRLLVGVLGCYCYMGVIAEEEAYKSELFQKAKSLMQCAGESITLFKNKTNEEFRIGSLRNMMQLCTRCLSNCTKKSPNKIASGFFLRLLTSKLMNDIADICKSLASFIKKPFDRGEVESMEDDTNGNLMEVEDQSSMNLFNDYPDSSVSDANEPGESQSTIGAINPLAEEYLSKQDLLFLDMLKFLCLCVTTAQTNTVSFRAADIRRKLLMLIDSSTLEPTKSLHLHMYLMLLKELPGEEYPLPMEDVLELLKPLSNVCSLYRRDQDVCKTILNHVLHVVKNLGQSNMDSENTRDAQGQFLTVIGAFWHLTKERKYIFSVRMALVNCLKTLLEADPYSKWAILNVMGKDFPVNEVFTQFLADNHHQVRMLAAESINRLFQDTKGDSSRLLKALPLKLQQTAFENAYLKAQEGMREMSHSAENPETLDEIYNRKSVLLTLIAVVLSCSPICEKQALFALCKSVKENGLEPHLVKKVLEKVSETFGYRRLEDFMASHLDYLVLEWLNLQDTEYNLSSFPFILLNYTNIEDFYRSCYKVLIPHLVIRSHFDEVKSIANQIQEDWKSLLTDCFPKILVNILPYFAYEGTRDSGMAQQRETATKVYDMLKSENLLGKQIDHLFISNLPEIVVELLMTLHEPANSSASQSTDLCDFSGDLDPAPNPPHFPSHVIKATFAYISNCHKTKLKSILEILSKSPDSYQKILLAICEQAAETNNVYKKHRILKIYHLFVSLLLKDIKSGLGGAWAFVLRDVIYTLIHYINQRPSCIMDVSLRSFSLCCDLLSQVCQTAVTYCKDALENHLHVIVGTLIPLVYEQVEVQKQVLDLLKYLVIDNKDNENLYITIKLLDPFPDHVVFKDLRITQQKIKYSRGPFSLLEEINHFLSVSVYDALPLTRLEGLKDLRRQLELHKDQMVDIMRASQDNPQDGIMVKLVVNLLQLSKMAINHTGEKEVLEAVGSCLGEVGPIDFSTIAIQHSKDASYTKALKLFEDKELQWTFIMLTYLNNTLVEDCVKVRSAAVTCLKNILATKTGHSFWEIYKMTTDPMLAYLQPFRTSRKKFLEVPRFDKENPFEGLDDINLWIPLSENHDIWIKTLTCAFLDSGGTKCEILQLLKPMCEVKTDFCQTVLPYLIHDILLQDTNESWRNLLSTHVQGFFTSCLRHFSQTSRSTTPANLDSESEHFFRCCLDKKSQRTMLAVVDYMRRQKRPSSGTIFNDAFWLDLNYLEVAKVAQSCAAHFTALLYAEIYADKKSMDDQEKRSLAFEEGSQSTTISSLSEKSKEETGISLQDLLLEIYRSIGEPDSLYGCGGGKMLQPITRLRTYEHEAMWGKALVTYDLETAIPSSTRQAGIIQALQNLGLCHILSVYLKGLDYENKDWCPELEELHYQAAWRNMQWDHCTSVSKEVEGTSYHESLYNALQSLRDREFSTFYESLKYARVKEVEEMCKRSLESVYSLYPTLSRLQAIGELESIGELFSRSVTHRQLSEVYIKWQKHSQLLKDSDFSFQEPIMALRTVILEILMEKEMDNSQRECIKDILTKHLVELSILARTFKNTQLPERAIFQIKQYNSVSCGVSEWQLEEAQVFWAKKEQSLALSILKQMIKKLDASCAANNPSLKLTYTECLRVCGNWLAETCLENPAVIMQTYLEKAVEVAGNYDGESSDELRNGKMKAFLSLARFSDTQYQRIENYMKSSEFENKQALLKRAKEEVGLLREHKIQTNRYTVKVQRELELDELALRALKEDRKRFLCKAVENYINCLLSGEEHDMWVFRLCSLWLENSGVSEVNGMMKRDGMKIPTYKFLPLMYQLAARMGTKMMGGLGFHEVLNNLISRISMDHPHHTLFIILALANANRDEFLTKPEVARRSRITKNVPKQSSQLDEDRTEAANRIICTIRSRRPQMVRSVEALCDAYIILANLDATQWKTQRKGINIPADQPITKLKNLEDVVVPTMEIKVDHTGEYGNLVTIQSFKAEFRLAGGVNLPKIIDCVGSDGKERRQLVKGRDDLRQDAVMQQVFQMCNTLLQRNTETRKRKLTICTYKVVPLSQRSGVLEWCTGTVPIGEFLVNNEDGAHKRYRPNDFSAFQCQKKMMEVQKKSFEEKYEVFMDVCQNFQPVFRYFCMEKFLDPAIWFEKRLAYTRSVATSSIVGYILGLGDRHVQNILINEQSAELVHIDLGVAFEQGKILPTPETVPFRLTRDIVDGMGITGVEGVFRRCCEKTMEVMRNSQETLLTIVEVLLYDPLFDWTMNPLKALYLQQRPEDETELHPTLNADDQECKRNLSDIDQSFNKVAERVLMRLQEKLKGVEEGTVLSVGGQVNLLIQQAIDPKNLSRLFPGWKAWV

With “wild-type Sp1: exogenously expressed wild-type Sp1 (SEQ ID NO: 2) with HA-tag, transfected in pFLAG-CMV2”, the “Colony survival in response to H2O2” value in experiment [1] is reported as “restored survival to the level observed with non-targeting RNAi”.

`OO` [H2O2, hydrogen peroxide]: in experiment [2] (200 μM H2O2), the “Time by which the 95 kDa form of Sp1 became the predominant species again” value was at most 8 h, the “Time of peak Sp1 phosphorylation” value is “one hour” and the “Time to first observed Sp1 phosphorylation post-treatment” value turned out to be 15 min. Also, in experiment [2] (one hour exposure), the “H2O2 concentration at which 105 kDa becomes the major Sp1 species” value is 200 µM and the “H2O2 concentration at which the Sp1 shift to 105 kDa is detected” value worked out at 50 µM. For the same molecule, the “H2O2 concentration at which Sp1 was shifted completely to the 105 kDa form” value in experiment [3] is 25 µM.

With “Sp1^S101A: exogenously expressed Sp1 mutant with serine 101 changed to Ala, not phosphorylated in response to damage”, the “Colony survival in response to H2O2” value in experiment [1] is “failed to rescue”.

As to `O=c1cc(-c2cccc3c2Sc2ccccc2S3)oc(N2CCOCC2)c1` [KU55933], the “H2O2-induced phosphorylation of Sp1 and H2AX” value in experiment [4] was “reduced but not abolished”. Besides, the “Phosphorylation of H2AX” value in experiment [5] is reported as “diminished”. For the same molecule, in experiment [6] (200 μM H2O2 for one hour), the “Electromobility shift in Sp1 from the 95 kDa to 105 kDa form” value was “blocked” and the “Phosphorylation of Sp1 at serine 101” value is on record as “abolished”. Besides, in experiment [6] (30 J/m^2 UV for four hours), the “Overall electromobility shift of total Sp1” value is on record as “partial reduction” and the “Phosphorylation of Sp1 at serine 101” value is on record as “abolished”. Besides, in experiment [7], the “ATM phosphorylation at serine 1981” value is on record as “still phosphorylated” and the “γSp1^101 immunofluorescence signal” value is listed as “lack of γSp1^101”. Also, the ATM kinase activity result in experiment [8] is “inhibited”.
